Patent US12644087B2, “Methods to generate polymer scaffolds having a gradient of crosslinking density” (The University of North Carolina at Chapel Hill, priority 2016, dated 2026)

System: primary human small intestinal epithelial cells
Method: Continuous monolayers of primary human small intestinal epithelial cells were generated on the crosslinked collagen hydrogel scaffold. […] (FIG. 3B) Fluorescence images of cells showing the EDU staining (white/light gray) and Hoechst 33342 (dark gray). The cell culture time was 10 days for A and B. (FIG. 3C) TEER vs. time (n=3 scaffolds).
To test this hypothesis, human small intestinal epithelial cells were plated on a hydrogel scaffold prepared in this manner, and the cell growth and TEER were monitored for up to 14 days (FIG. 3C). […] At day 10, the cells were stained with EDU (3-h pulse) to assess proliferating cells and Hoecsht nuclear stain to enable assessment of cell coverage across the scaffold (FIGS. 3A and 3B).

Lucifer yellow
permeability of Lucifer yellow (apical to basal diffusion): 2.4±0.7 ×10^−8 cm·s^−1
